Results: US20220380724A1, “COMPOSITION FOR PROMOTING PROLIFERATION OF STEM CELLS, CONTAINING, AS ACTIVE INGREDIENT, CP1P OR PHARMACEUTICALLY ACCEPTABLE SALT THEREOF” (INDUSTRY-UNIVERSITY COOPERATION FOUNDATION HANYANG …, priority 2019, published 2022)

Columns and labels:
Type in all cases: cell-based, human
hPSCs (CHA-ESC15) = assay: hPSC cell proliferation ability (optical microscopy and cell count); settings: cultured 6 days; for cell proliferation rate increase compared to the control group (FIG. 3): hPSCs, 10 nM, counted day 7, control DMSO; for apoptosis seen in micrographs (FIG. 2): hPSCs, 50, 100 or 500 nM
Description: They were shaken up and down, left and right to evenly disperse the cells and cultured within 24 hours in a 37° C. CO2 incubator. The culture medium was replaced with the E8 culture medium from which Y27632 was removed, and then the cells were cultured by replacing the culture medium every day until the next passage.
On the 7th day, the cells were observed using an optical microscope at a magnification of 100 times.
In addition, in order to measure the number of cells, the culture medium of the cells was removed on the 7th day of culture, and they were washed once with PBS. Then, for PBS-removed cells, cell dissociation buffer ([…]) was used to cause single-cell. The separated cells were centrifuged at 1000 rpm for 2 minutes to remove the buffer. Then, the cells were suspended in an E8 medium, and the number of cells was measured using EVE™ Automated Cell Counter (NanoEnTek).
Meanwhile, the control group was tested in the same manner as above, except that hPSCs were treated with DMSO (AppliChem GE, A3672,0100).
The culture was performed for 6 days, and hPSCs were observed on the 7th day. The proliferation rate was calculated as {(total number of cells in P1P, cP1P, or SW treatment group)/(total number of cells in the control group)}×100.

hPSCs [1] = assay: Alkaline phosphatase staining of hPSCs (undifferentiation ability); settings: 10 nM, compared to DMSO control
Description: In order to check whether the differentiation ability of hPSCs was changed by cP1P treatment, hPSCs were treated with 10 nM cP1P or a control group (vehicle, DMSO) in the same manner as in Example 2.

hPSCs [2] = assay: hPSC proliferation during subculture (total number of cells); settings: continuous 10 nM, subculture 3 times, P<0.01
Description: In order to check whether the change in hPSCs proliferation ability by cP1P treatment is maintained during subculture, hPSCs were continuously treated with 10 nM cP1P in the same manner as in Example 1, and after subculture 3 times, the proliferation change of hPSCs was confirmed.

hPSCs [3] = assay: hPSC cell cycle by PI flow cytometry; settings: 10 nM
Description: For flow cytometry, hPSCs were treated with 10 nM cP1P in the same manner as in Example 1, and hPSCs were separated using cell dissociation buffer (Thermo Fisher Scientific US, A1110501), and harvested cells were washed three times with DPBS (pH 7.4). After washing, the supernatant was removed. During washing, cold 70% (v/v) ethanol was added dropwise to the cell pellet. The cells were fixed at 4° C. for 1 hour and washed 3 times with DPBS (pH 7.4). After centrifugation at 2,000 rpm for 5 minutes, 50 uL of 100 μg/ml RNase (Sigma-Aldrich US, R4642) was added. They were mixed well and added with 200 μl of PI (propidium iodide) (Sigma-Aldrich US, P4170) (50 μg/ml) to stain the DNA. Then, the DNA content was measured using flow cytometry (BD).

CDK1, Cyclin B = assay: Expression of cell cycle regulatory genes in hPSCs; settings: 10 nM, compared to control
Description: (§1) For expression analysis of cell cycle regulatory genes, hPSCs were treated with 10 nM cP1P in the same manner as in Example 1. After hPSCs were washed with PBS, hPSCs were fixed in 4% (w/v) PFA (Santa Cruz Biotechnology US, 30525-89-4) for 5 minutes, or after the protein of hPSC cells was recovered, followed by electrophoresis. The expression of pluripotency genes was analyzed (immunofluorescence analysis or Western blot analysis) using anti-REX1(Abcam UK, ab50828), anti-OCT4(Santa Cruz Biotechnology US, sc-5279), anti-SOX2(Abcam UK, ab97959), anti-NANOG(Cell signaling US, 4893s), anti-E-cadherin(Cell signaling US, 24E10), or anti-SSEA4(Merck millipore US, 90231) antibody. Meanwhile, the control group was tested in the same manner as above, except that hPSCs were treated with DMSO (AppliChem GE, A3672,0100).

hPSCs [4] = assay: Apoptosis and cytotoxicity assay (Annexin V / 7-AAD); settings: 5 days; for apoptosis marker, (Annexin V, early apoptosis marker; FIG. 8): DMSO control 0.5%; for apoptosis marker, (7-AAD, late apoptosis marker; FIG. 8): DMSO control 6.2%
Description: In order to confirm apoptosis, hPSCs were treated with 10 nM cP1P in the same manner as in Example 1, hPSCs were separated using cell dissociation buffer (Thermo Fisher Scientific US, A1110501), and harvested cells were washed with DPBS (pH 7.4) 2 times. After centrifuged at 2,000 rpm for 5 minutes. The cells were resuspended at 1×10^5 cells per 100 ul of 1× binding buffer to which 10× binding buffer (0.1 M HEPES, 1.4 M NaCl, 25 mM CaCl2, pH 7.4) was diluted. They were added with 5 ul each of Annexin V (BD bioscience US, 556422) and 7-AAD (BD bioscience U.S. Pat. No. 1,559,925) and mixed slowly. They were cultured for 15 minutes in the dark at room temperature and added with 400 ul of 1× binding buffer. Then, analysis was performed using the Annexin V apoptosis detection kit (BD Pharmingen US, 556547).
In order to confirm whether apoptosis and cytotoxicity were induced when hPSCs were treated with cP1P, hPSCs were treated with 10 nM or 100 nM cP1P for 5 days in the same manner as in Example 6, and then Annexin V apoptosis detection kit (BD Pharmingen US, 556547) was used for analysis.

[5] = system: REX1, E-Cadherin, OCT4, SOX2, NANOG, SSEA-4; assay: Pluripotency marker expression in hPSCs (immunofluorescence, pluripotent array kit, flow cytometry, Western blot); settings: 100 nM
Description: as §1
Specifically, hPSCs were treated with 100 nM cP1P in the same manner as in Example 1. Immunofluorescence analysis was performed in the same manner as in Example 6. Expression of pluripotency-related genes was analyzed using a pluripotent array kit (R&D System US, ARY101). Flow cytometry was performed in the same manner as in Example 6.

hPSCs [6] = assay: RNA sequencing of hPSCs after long-term (15 passages) treatment; settings: 10 nM
Description: Specifically, hPSCs were treated and cultured with 10 nM cP1P or were treated and cultured with DMSO as a control group in the same manner as in Example 1. The passage in which cP1P was first treated was defined as 0 and cultured up to a total of 15 passages. After the cells were recovered, and RNAs were extracted. The RNA sequencing analysis was performed with a next-generation sequencing analyzer (Illumina HiSeq 2500) by DGIST (Daegu Gyeongbuk Institute of Science and Technology) asked to analyze the cells.

CCCCCCCCCCCCCC[C@@H](O)[C@@H](O)[C@@H](N)COP(=O)(O)O [P1P, phytosphingosine-1-phosphate]
cell proliferation rate increase compared to the control group (FIG. 3) (hPSCs (CHA-ESC15)): about 1.55 times | apoptosis seen in micrographs (FIG. 2) (hPSCs (CHA-ESC15); observed day 7): apoptosis occurred

CCCCCCCCCCCCC/C=C/[C@@H](O)[C@@H](N)COP(=O)(O)O [S1P, sphingosine-1-phosphate]
cell proliferation rate increase compared to the control group (FIG. 3) (hPSCs (CHA-ESC15)): about 1.25 times | apoptosis seen in micrographs (FIG. 2) (hPSCs (CHA-ESC15); observed day 7): apoptosis occurred

CCCCCCCCCCCCCC[C@@H](O)[C@H]1OP(=O)(O)OC[C@@H]1N [cP1P, o-cyclic phytosphingosine-1-phosphate]
cell proliferation rate increase compared to the control group (FIG. 3) (hPSCs (CHA-ESC15)): 1.78 times | cell proliferation ability (FIG. 2) (hPSCs (CHA-ESC15); hPSCs, 50, 100 or 500 nM every 2 days, observed day 7, compared to P1P or S1P): significantly increased | undifferentiation ability (alkaline phosphatase staining, FIG. 4) (hPSCs [1]): well maintained | total number of cells as subculture was performed (FIG. 6) (hPSCs [2]): increased significantly | increase of cell proliferation compared to the control group (FIG. 7A) (hPSCs [3]): ≥ 12% | number of cells in G2/M phase (FIG. 7B) (hPSCs [3]; compared to control, P<0.01): significantly increased | number of cells in sub-GO phase (apoptotic cells, FIG. 7B) (hPSCs [3]; compared to control, P>0.05): significantly reduced | cell proliferation, experimental group (FIG. 7A) (hPSCs [3]; control group 48%): 60% | expression of genes regulating the cell cycle (CDK1, Cyclin B; FIGS. 7C to 7E) (CDK1, Cyclin B): increased | apoptosis compared to the control group (FIG. 8) (hPSCs [4]; 10 nM or 100 nM): reduced | cytotoxicity compared to the control group (FIG. 8) (hPSCs [4]; 10 nM or 100 nM): significantly lowered | apoptosis marker, (Annexin V, early apoptosis marker; FIG. 8) (hPSCs [4]; 10 nM): 0.9% | apoptosis marker, (7-AAD, late apoptosis marker; FIG. 8) (hPSCs [4]; 10 nM): 3.9% | apoptosis marker, (Annexin V, early apoptosis marker; FIG. 8) (hPSCs [4]; 100 nM): 1.9% | apoptosis marker, (7-AAD, late apoptosis marker; FIG. 8) (hPSCs [4]; 100 nM): 5.3% | expression of pluripotency marker genes REX1, E-Cadherin, OCT4 and SOX2 (immunofluorescence, FIG. 9A) ([5]; compared to control): increased | protein expression of OCT4 and E-Cadherin (FIG. 9D) ([5]; compared to control): increased | spots of pluripotency-related genes OCT4, NANOG, SOX2 and E-Cadherin (array, FIG. 9B) ([5]; compared to control): detected to be high | protein expression of SSEA-4 (FIG. 9C) ([5]; control 68.8%): 82.2% | protein expression of E-Cadherin (FIG. 9C) ([5]; control 81.8%): 85.6% | protein expression of REX1 (FIG. 9C) ([5]; control 86.8%): 95.7% | protein expression of OCT4 (FIG. 9C) ([5]; control 95.2%): 96.5% | cluster 5 (C5) gene expression (cell development, embryo development, cell proliferation genes) (hPSCs [6]; decreased in untreated control): stably maintained | cluster 2 (C2) gene expression (oxidative stress and apoptotic process genes) (hPSCs [6]; increased in untreated control): decreased | gene expression changes (DEG) compared with passage 0 (FIG. 10) (hPSCs [6]; no cP1P-treated group 575): 197
